# Assay results published in ChEMBL document CHEMBL4196087 (Eur J Med Chem, 2018).
# pIC50: −log10 of the molar value.
# Legend:
# UO-31 [1] = assay: Induction of apoptosis in human UO31 cells assessed as live cells at 0.75 uM after 24 hrs by Annexin V-FITC/propidium iodide staining based low cytometry (reference value: 97.84%); type: functional
# UO-31 [2] = assay: Cell cycle arrest in human UO31 cells assessed as accumulation at G1 phase at 0.75 uM after 24 hrs by propidium iodide staining based flow cytometry (reference value: 69.55%); type: functional
# UO-31 [3] = assay: Antiproliferative activity against human UO31 cells after 48 hrs by MTT assay; type: functional, cell-based; conditions: UO-31, 48 h
# Bacillus subtilis = assay: Antibacterial activity against Bacillus subtilis at 37 degC measured after 24 hrs by agar disc diffusion method; type: functional
# UO-31 [4] = assay: Cell cycle arrest in human UO31 cells assessed as accumulation at G2 phase at 0.75 uM after 24 hrs by propidium iodide staining based flow cytometry (reference value: 5.49%); type: functional
# UO-31 [5] = assay: Cell cycle arrest in human UO31 cells assessed as accumulation at pre-G1 phase at 0.75 uM after 24 hrs by propidium iodide staining based flow cytometry relative to control; type: functional
# UO-31 [6] = assay: Cell cycle arrest in human UO31 cells assessed as accumulation at S phase at 0.75 uM after 24 hrs by propidium iodide staining based flow cytometry (reference value: 24.47%); type: functional
# Staphylococcus aureus = assay: Antibacterial activity against Staphylococcus aureus at 37 degC measured after 24 hrs by agar disc diffusion method; type: functional
# DNA topoisomerase 2-beta [7] = biological target: T1, DNA topoisomerase 2-beta (Homo sapiens, UniProt Q02880); assay: Potency index, ratio of amsacrine IC50 to compound IC50 for inhibition of human topoisomerase-2B
# UO-31 [8] = assay: Induction of apoptosis in human UO31 cells assessed as late apoptotic cells at 0.75 uM after 24 hrs by Annexin V-FITC/propidium iodide staining based flow cytometry (reference value: 0.22%); type: functional
# UO-31 [9] = assay: Induction of apoptosis in human UO31 cells assessed as caspase-3 activation by measuring active caspase-3 level at 0.75 uM by […] (reference value: 66 pg/ml); type: functional
# UO-31 [10] = assay: Induction of apoptosis in human UO31 cells assessed as necrotic cells at 0.75 uM after 24 hrs by Annexin V-FITC/propidium iodide staining based flow cytometry (reference value: 0.08%); type: functional
# UO-31 [11] = assay: Induction of apoptosis in human UO31 cells assessed as early apoptotic cells at 0.75 uM after 24 hrs by Annexin V-FITC/propidium iodide staining based flow cytometry (reference value: 0.19%); type: functional
# Escherichia coli = assay: Antibacterial activity against Escherichia coli at 37 degC measured after 24 hrs by agar disc diffusion method; type: functional
# UO-31 [12] = assay: Antiproliferative activity against human UO31 cells after 48 hrs by SRB assay; type: functional; conditions: UO-31, 48 h
# DNA topoisomerase 2-beta [13] = biological target: T1, DNA topoisomerase 2-beta; assay: Potency index, ratio of etoposide IC50 to compound IC50 for inhibition of human topoisomerase-2B
# UO-31 [14] = assay: Cell cycle arrest in human UO31 cells assessed as accumulation at G2/M phase at 0.75 uM after 24 hrs by propidium iodide staining based flow cytometry relative to control; type: functional
# DNA topoisomerase 2-beta [15] = biological target: T1, DNA topoisomerase 2-beta; assay: Inhibition of human topoisomerase-2B after 2 hrs by ELISA
# UO-31 [16] = assay: Potency index, ratio of doxorubicin IC50 to compound IC50 for antiproliferative activity against human UO31 cells; type: functional
# UO-31 [17] = assay: Cell cycle arrest in human UO31 cells assessed as apoptotic cells at 0.75 uM after 24 hrs by propidium iodide staining based flow cytometry (reference value: 0.49%); type: functional
# Pseudomonas aeruginosa = assay: Antibacterial activity against Pseudomonas aeruginosa at 37 degC measured after 24 hrs by agar disc diffusion method; type: functional
# DNA topoisomerase 2-beta [18] = biological target: T1, DNA topoisomerase 2-beta; assay: Potency index, ratio of doxorubicin IC50 to compound IC50 for inhibition of human topoisomerase-2B
# MCF7 = assay: Growth inhibition of human MCF7 cells at 10^-5 M incubated for 48 hrs by sulforhodamine B assay relative to control; type: functional; conditions: MCF7, 48 h, read-out: GI
# K562 = assay: Growth inhibition of human K562 cells at 10^-5 M incubated for 48 hrs by sulforhodamine B assay relative to control; type: functional; conditions: K562, 48 h, read-out: GI
# RPMI-8226 = assay: Growth inhibition of human RPMI8226 cells at 10^-5 M incubated for 48 hrs by sulforhodamine B assay relative to control; type: functional; conditions: RPMI-8226, 48 h, read-out: GI
# PC-3 = assay: Growth inhibition of human PC3 cells at 10^-5 M incubated for 48 hrs by sulforhodamine B assay relative to control; type: functional; conditions: PC-3, 48 h, read-out: GI
# MDA-MB-468 [19] = assay: Potency index, ratio of doxorubicin IC50 to compound IC50 for antiproliferative activity against human MDA-MB-468 cells; type: functional
# MDA-MB-468 [20] = assay: Growth inhibition of human MDA-MB-468 cells at 10^-5 M incubated for 48 hrs by sulforhodamine B assay relative to control; type: functional; conditions: MDA-MB-468, 48 h, read-out: GI
# HOP-62 = assay: Growth inhibition of human HOP62 cells at 10^-5 M incubated for 48 hrs by sulforhodamine B assay relative to control; type: functional; conditions: HOP-62, 48 h, read-out: GI
# NCI-H226 = assay: Growth inhibition of human NCI-H226 cells at 10^-5 M incubated for 48 hrs by sulforhodamine B assay relative to control; type: functional; conditions: NCI-H226, 48 h, read-out: GI
# CCRF-CEM = assay: Growth inhibition of human CCRF-CEM cells at 10^-5 M incubated for 48 hrs by sulforhodamine B assay relative to control; type: functional; conditions: read-out: GI
# LOX IMVI = assay: Growth inhibition of human LOXIMVI cells at 10^-5 M incubated for 48 hrs by sulforhodamine B assay relative to control; type: functional; conditions: read-out: GI
# MDA-MB-468 [21] = assay: Antiproliferative activity against human MDA-MB-468 cells after 48 hrs by MTT assay; type: functional, cell-based; conditions: MDA-MB-468, 48 h
# SK-MEL-5 = assay: Growth inhibition of human SK-MEL-5 cells at 10^-5 M incubated for 48 hrs by sulforhodamine B assay relative to control; type: functional; conditions: SK-MEL-5, 48 h, read-out: GI
# A498 = assay: Growth inhibition of human A498 cells at 10^-5 M incubated for 48 hrs by sulforhodamine B assay relative to control; type: functional; conditions: A498, 48 h, read-out: GI
# IGROV-1 = assay: Growth inhibition of human IGROV1 cells at 10^-5 M incubated for 48 hrs by sulforhodamine B assay relative to control; type: functional; conditions: IGROV-1, 48 h, read-out: GI
# UO-31 [22] = assay: Growth inhibition of human UO31 cells at 10^-5 M incubated for 48 hrs by sulforhodamine B assay relative to control; type: functional; conditions: UO-31, 48 h, read-out: GI
# SF-539 = assay: Growth inhibition of human SF539 cells at 10^-5 M incubated for 48 hrs by sulforhodamine B assay relative to control; type: functional; conditions: SF-539, 48 h, read-out: GI
# HL-60(TB) = assay: Growth inhibition of human HL-60(TB) cells at 10^-5 M incubated for 48 hrs by sulforhodamine B assay relative to control; type: functional; conditions: HL-60, 48 h, read-out: GI
# T47D = assay: Growth inhibition of human T47D cells at 10^-5 M incubated for 48 hrs by sulforhodamine B assay relative to control; type: functional; conditions: read-out: GI
# SNB-75 = assay: Growth inhibition of human SNB75 cells at 10^-5 M incubated for 48 hrs by sulforhodamine B assay relative to control; type: functional; conditions: SNB-75, 48 h, read-out: GI
# MDA-MB-231 = assay: Growth inhibition of human MDA-MB-231 cells at 10^-5 M incubated for 48 hrs by sulforhodamine B assay relative to control; type: functional; conditions: MDA-MB-231, 48 h, read-out: GI
# MDA-MB-468 [23] = assay: Antiproliferative activity against human MDA-MB-468 cells after 48 hrs by SRB assay; type: functional; conditions: MDA-MB-468, 48 h, read-out: LC50 (the source's name)
# HOP-92 = assay: Growth inhibition of human HOP92 cells at 10^-5 M incubated for 48 hrs by sulforhodamine B assay relative to control; type: functional; conditions: HOP-92, 48 h, read-out: GI
# MOLT-4 = assay: Growth inhibition of human MOLT4 cells at 10^-5 M incubated for 48 hrs by sulforhodamine B assay relative to control; type: functional; conditions: MOLT-4, 48 h, read-out: GI
# T1 sequence (Q02880 whole entry): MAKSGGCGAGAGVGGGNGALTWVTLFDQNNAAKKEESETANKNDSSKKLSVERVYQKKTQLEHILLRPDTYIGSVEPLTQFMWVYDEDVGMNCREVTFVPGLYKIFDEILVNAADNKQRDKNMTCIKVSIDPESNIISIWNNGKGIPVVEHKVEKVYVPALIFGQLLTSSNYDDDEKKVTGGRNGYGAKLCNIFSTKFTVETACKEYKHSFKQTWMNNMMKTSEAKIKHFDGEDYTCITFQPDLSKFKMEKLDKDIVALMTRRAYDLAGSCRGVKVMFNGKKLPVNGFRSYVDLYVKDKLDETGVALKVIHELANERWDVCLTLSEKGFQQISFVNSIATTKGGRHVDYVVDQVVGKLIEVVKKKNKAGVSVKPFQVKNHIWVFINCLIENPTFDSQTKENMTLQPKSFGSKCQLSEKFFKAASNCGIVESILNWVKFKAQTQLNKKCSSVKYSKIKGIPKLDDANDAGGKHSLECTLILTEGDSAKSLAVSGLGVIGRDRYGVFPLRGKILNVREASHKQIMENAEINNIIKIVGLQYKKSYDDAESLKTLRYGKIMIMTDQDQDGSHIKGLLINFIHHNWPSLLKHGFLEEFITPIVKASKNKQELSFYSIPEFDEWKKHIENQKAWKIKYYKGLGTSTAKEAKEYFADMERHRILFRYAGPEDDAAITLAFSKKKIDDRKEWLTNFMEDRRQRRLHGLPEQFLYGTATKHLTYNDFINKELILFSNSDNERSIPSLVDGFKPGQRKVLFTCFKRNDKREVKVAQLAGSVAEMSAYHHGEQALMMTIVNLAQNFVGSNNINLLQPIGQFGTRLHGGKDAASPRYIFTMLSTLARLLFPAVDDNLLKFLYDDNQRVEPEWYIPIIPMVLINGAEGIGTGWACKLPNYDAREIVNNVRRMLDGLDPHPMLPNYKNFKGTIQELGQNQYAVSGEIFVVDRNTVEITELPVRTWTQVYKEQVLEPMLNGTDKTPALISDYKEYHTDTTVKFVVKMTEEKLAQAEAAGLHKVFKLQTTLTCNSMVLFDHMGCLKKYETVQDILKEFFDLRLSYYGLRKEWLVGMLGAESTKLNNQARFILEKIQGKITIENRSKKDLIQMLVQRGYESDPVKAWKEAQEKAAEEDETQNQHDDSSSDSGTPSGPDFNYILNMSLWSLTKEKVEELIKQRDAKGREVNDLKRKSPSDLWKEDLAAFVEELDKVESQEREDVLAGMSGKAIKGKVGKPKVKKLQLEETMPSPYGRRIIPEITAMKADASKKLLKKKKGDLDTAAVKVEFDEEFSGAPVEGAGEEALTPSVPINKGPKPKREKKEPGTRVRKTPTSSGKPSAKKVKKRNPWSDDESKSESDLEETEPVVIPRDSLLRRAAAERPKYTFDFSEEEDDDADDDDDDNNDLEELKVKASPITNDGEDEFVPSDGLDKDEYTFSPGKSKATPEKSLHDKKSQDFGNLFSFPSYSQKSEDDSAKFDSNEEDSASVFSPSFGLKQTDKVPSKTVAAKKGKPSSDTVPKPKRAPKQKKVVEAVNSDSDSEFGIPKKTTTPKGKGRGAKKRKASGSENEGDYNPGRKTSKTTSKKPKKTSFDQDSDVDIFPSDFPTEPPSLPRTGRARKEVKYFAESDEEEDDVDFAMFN
structure (smiles),measurement,setting,value
O=C(CN1CCN(c2cc3c(cc2F)c(=O)c(C(=O)O)cn3C2CC2)CC1)N/N=C/c1ccccc1O,Activity,UO-31 [1],91.8%
same,Activity,UO-31 [2],59.87%
same,pIC50,UO-31 [3],6.12
same,diameter of the inhibition zone (DIZ),Bacillus subtilis,18 mm
same,Activity,UO-31 [4],11.28%
same,fold change (FC),UO-31 [5],13.9
same,Activity,UO-31 [6],22.02%
same,diameter of the inhibition zone (DIZ),Staphylococcus aureus,15 mm
same,Ratio IC50,DNA topoisomerase 2-beta [7],5
same,Activity,UO-31 [8],3.32%
same,Activity,UO-31 [9],346.4 pg/mL
same,Activity,UO-31 [10],0.87%
same,Activity,UO-31 [11],2.64%
same,diameter of the inhibition zone (DIZ),Escherichia coli,16 mm
same,LC50,UO-31 [12],15.2 µM
same,Ratio IC50,DNA topoisomerase 2-beta [13],1.5
same,fold change (FC),UO-31 [14],2.05
same,pIC50,DNA topoisomerase 2-beta [15],6.24
same,Ratio IC50,UO-31 [16],1.5 - 9
same,Activity,UO-31 [17],6.83%
same,diameter of the inhibition zone (DIZ),Pseudomonas aeruginosa,17 mm
same,Ratio IC50,DNA topoisomerase 2-beta [18],6
O=C(CN1CCN(c2cc3c(cc2F)c(=O)c(C(=O)O)cn3C2CC2)CC1)N/N=C/c1ccccc1C(F)(F)F,inhibition of growth at 10 µM,MCF7,< 20%
same,inhibition of growth at 10 µM,K562,21.2%
same,inhibition of growth at 10 µM,RPMI-8226,25%
same,inhibition of growth at 10 µM,PC-3,24.9%
same,Ratio IC50,MDA-MB-468 [19],1.3
same,inhibition of growth at 10 µM,MDA-MB-468 [20],34.7%
same,inhibition of growth at 10 µM,HOP-62,< 20%
same,pIC50,UO-31 [3],5.31
same,inhibition of growth at 10 µM,NCI-H226,< 20%
same,inhibition of growth at 10 µM,CCRF-CEM,< 20%
same,diameter of the inhibition zone (DIZ),Bacillus subtilis,28 mm
same,inhibition of growth at 10 µM,LOX IMVI,32.3%
same,pIC50,MDA-MB-468 [21],5.67
same,diameter of the inhibition zone (DIZ),Staphylococcus aureus,25 mm
same,inhibition of growth at 10 µM,SK-MEL-5,22.1%
same,diameter of the inhibition zone (DIZ),Escherichia coli,26 mm
same,LC50,UO-31 [12],15.9 µM
same,inhibition of growth at 10 µM,A498,20.7%
same,inhibition of growth at 10 µM,IGROV-1,33.4%
same,inhibition of growth at 10 µM,UO-31 [22],37.4%
same,inhibition of growth at 10 µM,SF-539,22.5%
same,inhibition of growth at 10 µM,HL-60(TB),< 20%
same,inhibition of growth at 10 µM,T47D,25.1%
same,inhibition of growth at 10 µM,SNB-75,29.9%
same,inhibition of growth at 10 µM,MDA-MB-231,23.6%
same,CC50,MDA-MB-468 [23],15.6 µM
same,inhibition of growth at 10 µM,HOP-92,35.9%
same,inhibition of growth at 10 µM,MOLT-4,27.3%
same,Ratio IC50,UO-31 [16],1.5 - 9
same,diameter of the inhibition zone (DIZ),Pseudomonas aeruginosa,25 mm
